From PubChem BioAssay (NCI) come the findings set out here.

Holding throughout (test): DTP human tumour cell line panel, 48 h
The test system of test [1] is SW-620 colon.
For test [2], the system named is MALME-3M melanoma.
The test system of test [3] is HCT-116 colon.
Test [4] concerns SK-OV-3 ovarian.
Test [5] concerns RPMI-8226 leukemia.
The subject of test [6] is SN12C renal.
Test [7] deals with MDA-MB-231 breast.
The test system of test [8] is DU-145 prostate.
Test [9] has as its system HOP-62 NSCLC.
Test [10] concerns CAKI-1 renal.
Test [11] deals with OVCAR-8 ovarian.

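Interpolation was linear, between the two tested concentrations surrounding the appropriate level; five concentrations were tested over 48 hours in 96-well plates. Definition used: TGI = concentration required for complete inhibition of growth.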

One may read the TGI as the concentration at which net growth stops.

Take `CC(=O)OC1COC(Nc2nc(N)n(C)c(=O)c2N=O)C(OC(C)=O)C1OC(C)=O` (centres undefined): the concentration for total growth inhibition (TGI) in test [1], in [2], in test [3], in test [4], in [5] and in test [6] was > 10 µM throughout. Besides, the concentration for total growth inhibition (TGI) in test [7], in test [8], in test [9], in [10] and in test [11] was > 10 µM throughout.
For `C=C1C(=O)OC2CC3(C)OC3CC/C(C)=C/C(OC(C)=O)C12` (centres undefined), the TGI in [1] was found to be 4.89 µM; in [2], 5.9 µM; in test [3], 14.6 µM; in [4], 37 µM; in test [5] it was 14.3 µM; in [6], 26.3 µM. Moreover, the TGI in test [7] stood at 24.8 µM; in test [8], 28.4 µM; in test [9], 33.5 µM; in test [10] it was 6.24 µM; in test [11] it was 13.6 µM.
Consider `O=C1CC2CCC(C1)S2=O` (centres undefined), for which the total growth inhibition concentration (TGI) in test [1], in test [2], in test [3], in test [4], in test [5] and in test [6] was > 100 µM throughout. The total growth inhibition concentration (TGI) in [7], in test [8], in test [9], in test [10] and in test [11] was > 100 µM each time.
Turning to `[N-]=[N+]=Nc1c([N+](=O)[O-])c(=O)n2c3c(cccc13)CCC2`, the total growth inhibition concentration (TGI) is 13.9 µM in test [1]; 4.27 µM in test [2]; 30.2 µM in [3]; > 100 µM in test [4]; 11.5 µM in test [5]; 25.9 µM in [6]. In addition, the TGI in test [7] is 25.9 µM; in [8], 38.7 µM; in [9], > 100 µM; in test [10], 27.9 µM; in [11], 35.1 µM.
As for `COc1cc(CS(=O)c2ccc(O)cc2)cc(OC)c1OC` (centres undefined), the TGI in [1], in test [2], in [3], in test [4], in [5] and in test [6] was > 100 µM each time. Further, the TGI in [7], in [8], in [9], in test [10] and in [11] was > 100 µM in each case.
With `CC(C)(C)CC(C)(C)c1ccc(O)c(C[N+](C)(C)[O-])c1`, the concentration for total growth inhibition (TGI) in test [1], in [2], in test [3], in test [4], in test [5] and in [6] was > 100 µM in each case. In addition, the concentration for total growth inhibition (TGI) in test [7], in [8], in test [9], in test [10] and in test [11] was > 100 µM throughout.
Turning to `COc1ccc(Nc2nc(N)c(C(=O)c3cccs3)s2)cc1`, the TGI in test [1] was > 100 µM; in [2] it was 64.8 µM; in [3], > 36.5 µM; in test [4], > 100 µM; in test [5], 21.7 µM; in test [6] it was > 75.6 µM. Besides, the TGI was > 80.8 µM in test [7]; 36.3 µM in test [8]; > 67.7 µM in test [9]; > 100 µM in [10]; > 100 µM in test [11].
With `COc1ccc(C(=O)/C=C/c2cc(O)c(O)cc2F)c(OC)c1`, the concentration for total growth inhibition (TGI) in [1] was > 55.3 µM; in test [2] it was 24.6 µM; in test [3], 20.4 µM; in test [4], 47.2 µM; in test [5], 36.4 µM; in test [6], 18 µM. The total growth inhibition concentration (TGI) is 64.3 µM in test [7]; 27.3 µM in test [8]; 31.1 µM in [9]; > 100 µM in test [10]; > 76.6 µM in test [11].
For the compound `O=c1ccc2ccc(O)cc2o1`, the TGI in [1], in [2], in test [3], in test [4], in [5] and in test [6] was > 100 µM in each case. Also, the TGI in [7], in test [8], in test [9], in test [10] and in test [11] was > 100 µM in each case.
In the case of `NC1CC=C(COC(=O)C(O)(c2ccccc2)C2CC2)CC1` (centres undefined), the concentration for total growth inhibition (TGI) in test [1], in test [2], in test [3], in test [4], in [5] and in [6] was > 100 µM in each case. For the same compound, the TGI in test [7], in test [8], in test [9], in test [10] and in [11] was > 100 µM throughout.
In the case of `C[N+](C)(CCNC(=O)c1cccc2cc3ccccc3nc12)Cc1ccc([N+](=O)[O-])s1`, the TGI in test [1], in test [2], in test [3], in test [4], in test [5] and in test [6] was > 25 µM in each case. Besides, the total growth inhibition concentration (TGI) in [7], in test [8], in [9], in test [10] and in [11] was > 25 µM in each case.
For the compound `Oc1cc(Br)cc2cc(Cl)cnc12`, the TGI in test [1] is > 46.2 µM; in test [2] it was 30 µM; in test [3] it was > 42 µM; in test [4], > 68.9 µM; in test [5], 26 µM; in test [6] it was 45.1 µM. Also, the concentration for total growth inhibition (TGI) in [7] is > 100 µM; in [8], > 55.5 µM; in test [9], > 60.4 µM; in test [10] it was 85.9 µM; in [11], > 40.6 µM.
With `Brc1ccc2c(-c3csc(-c4c[nH]c5ccccc45)n3)c[nH]c2c1`, the concentration for total growth inhibition (TGI) in test [1] is 30.1 µM; in [2], 31 µM; in [3] it was 29.6 µM; in test [4], 44.8 µM; in test [5], 46.6 µM; in test [6] it was 39.2 µM. For the same compound, the TGI turned out to be 31 µM in test [7]; 32.9 µM in test [8]; 30.8 µM in test [9]; 33.4 µM in test [10]; 33.1 µM in test [11].
For `c1ccc(CN2CCN3CCN(CC2)CCN(Cc2ccccc2)CC3)cc1`, the TGI in test [1] is 63.3 µM; in test [2], 8.01 µM; in test [3], 16.4 µM; in [4] it was 40 µM; in test [5], 9.83 µM; in [6] it was 16.9 µM. Also, the total growth inhibition concentration (TGI) in [7] was 18.4 µM; in test [8], 29.6 µM; in test [9], 32.5 µM; in test [10], > 88.3 µM; in test [11], 23.3 µM.
